Results reported in ChEMBL document CHEMBL1130155, “Synthesis and structure-activity relationships of potent thrombin inhibitors: piperazides of 3-amidinophenylalanine” (J Med Chem, 1997).

How the values were obtained:
Prothrombin = Prothrombin (Bos taurus, UniProt P00735)
Description: Inhibitory activity against thrombin

Serine protease 1 = target: T1, Serine protease 1 (Bos taurus, UniProt P00760); experiment: Inhibitory activity against trypsin
T1 sequence (P00760 whole entry): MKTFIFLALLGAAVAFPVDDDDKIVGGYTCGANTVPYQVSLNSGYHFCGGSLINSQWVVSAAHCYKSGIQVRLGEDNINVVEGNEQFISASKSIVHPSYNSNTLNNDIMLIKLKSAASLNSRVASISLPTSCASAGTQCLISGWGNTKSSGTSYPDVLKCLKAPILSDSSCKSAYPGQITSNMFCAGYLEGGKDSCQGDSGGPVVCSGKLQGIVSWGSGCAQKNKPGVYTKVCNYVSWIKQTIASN

Plasminogen [1] = target: T2, Plasminogen (Homo sapiens, UniProt P00747); experiment: Inhibitory activity against plasmin
Coagulation factor X = Coagulation factor X (Bos taurus, UniProt P00743); experiment: Inhibitory activity against coagulation factor X.
[2] = target: Urokinase-type plasminogen activator (Homo sapiens, UniProt P00749); experiment: Inhibitory activity against UK.
Coagulation factor XII = target: T3, Coagulation factor XII (Homo sapiens, UniProt P00748); experiment: Inhibitory activity against Coagulation factor XII
T3 sequence (P00748 whole entry): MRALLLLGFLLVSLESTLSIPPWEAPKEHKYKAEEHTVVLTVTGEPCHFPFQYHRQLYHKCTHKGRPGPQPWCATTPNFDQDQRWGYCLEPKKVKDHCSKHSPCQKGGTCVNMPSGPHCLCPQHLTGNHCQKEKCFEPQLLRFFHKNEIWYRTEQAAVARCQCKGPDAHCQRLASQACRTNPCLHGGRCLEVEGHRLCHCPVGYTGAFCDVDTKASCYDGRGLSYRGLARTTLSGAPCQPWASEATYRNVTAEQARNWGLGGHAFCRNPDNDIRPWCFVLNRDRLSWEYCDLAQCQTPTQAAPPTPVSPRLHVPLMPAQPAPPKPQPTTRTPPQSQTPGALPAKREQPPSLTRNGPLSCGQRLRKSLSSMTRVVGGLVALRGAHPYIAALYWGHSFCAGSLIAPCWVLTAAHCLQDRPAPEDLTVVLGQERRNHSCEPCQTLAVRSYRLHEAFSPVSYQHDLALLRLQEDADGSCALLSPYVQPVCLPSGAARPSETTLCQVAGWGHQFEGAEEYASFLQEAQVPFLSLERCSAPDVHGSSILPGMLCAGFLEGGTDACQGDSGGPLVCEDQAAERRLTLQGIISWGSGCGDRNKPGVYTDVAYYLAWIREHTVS

[3] = target: Tissue-type plasminogen activator (Homo sapiens, UniProt P00750); experiment: Inhibitory activity against single-chain tissue-type plasminogen activator (sc-tissue plasminogen activator)
[4] = target: Vitamin K-dependent protein C (Homo sapiens, UniProt P04070); experiment: Inhibitory activity against Activated protein C
Plasma kallikrein = Plasma kallikrein (Homo sapiens, UniProt P03952); experiment: Inhibitory activity against Kallikrein (PK)
[5] = Concentration for doubling of thrombin time; type: functional, Homo sapiens
Plasminogen [6] = target: T2, Plasminogen; experiment: Inhibitory activity against Plasmin.
[7] = Concentration for doubling of prothrombin time; type: functional, Homo sapiens
[8] = Concentration for doubling of partial thromboplastin time; type: functional, Homo sapiens

T2 sequence (P00747 97-580 limits assumed): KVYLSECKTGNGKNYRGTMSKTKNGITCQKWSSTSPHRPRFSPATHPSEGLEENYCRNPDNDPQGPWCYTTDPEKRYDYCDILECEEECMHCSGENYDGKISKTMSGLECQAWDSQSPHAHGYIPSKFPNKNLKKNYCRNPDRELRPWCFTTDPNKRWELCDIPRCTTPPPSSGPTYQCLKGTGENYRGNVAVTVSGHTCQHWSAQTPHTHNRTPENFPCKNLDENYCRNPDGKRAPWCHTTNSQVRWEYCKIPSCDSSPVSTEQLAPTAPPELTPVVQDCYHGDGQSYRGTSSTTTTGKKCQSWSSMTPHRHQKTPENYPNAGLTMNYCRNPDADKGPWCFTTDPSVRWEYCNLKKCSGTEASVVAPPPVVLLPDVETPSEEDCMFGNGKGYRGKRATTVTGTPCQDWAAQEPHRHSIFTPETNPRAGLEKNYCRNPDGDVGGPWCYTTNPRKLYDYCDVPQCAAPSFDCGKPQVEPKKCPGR
T2 sequence (P00747 581-810 limits assumed): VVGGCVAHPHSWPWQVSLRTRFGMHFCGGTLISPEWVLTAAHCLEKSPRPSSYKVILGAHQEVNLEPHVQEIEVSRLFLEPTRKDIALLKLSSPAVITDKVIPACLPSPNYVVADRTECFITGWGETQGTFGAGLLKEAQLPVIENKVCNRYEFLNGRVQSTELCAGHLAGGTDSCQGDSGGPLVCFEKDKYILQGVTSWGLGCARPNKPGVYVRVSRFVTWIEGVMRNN
Chain of Plasma kallikrein (P03952 20-390 limits assumed): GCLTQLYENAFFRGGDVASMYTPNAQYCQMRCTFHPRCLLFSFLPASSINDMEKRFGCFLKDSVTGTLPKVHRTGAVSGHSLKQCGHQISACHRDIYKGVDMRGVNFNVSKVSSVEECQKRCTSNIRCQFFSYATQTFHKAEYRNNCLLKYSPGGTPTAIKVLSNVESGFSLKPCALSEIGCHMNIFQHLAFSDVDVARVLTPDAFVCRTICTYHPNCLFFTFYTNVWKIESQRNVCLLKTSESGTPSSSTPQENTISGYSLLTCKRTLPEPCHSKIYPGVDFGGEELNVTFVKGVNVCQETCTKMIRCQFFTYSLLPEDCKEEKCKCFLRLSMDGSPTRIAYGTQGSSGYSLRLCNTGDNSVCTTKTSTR
Chain of Plasma kallikrein (P03952 391-638 limits assumed): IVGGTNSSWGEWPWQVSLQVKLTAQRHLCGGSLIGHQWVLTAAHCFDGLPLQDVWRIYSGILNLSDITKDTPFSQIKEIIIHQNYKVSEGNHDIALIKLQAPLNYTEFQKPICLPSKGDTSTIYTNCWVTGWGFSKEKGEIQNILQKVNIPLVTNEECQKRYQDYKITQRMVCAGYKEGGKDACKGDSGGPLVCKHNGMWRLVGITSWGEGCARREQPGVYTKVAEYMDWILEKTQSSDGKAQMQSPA
Chain of Tissue-type plasminogen activator (P00750 whole entry): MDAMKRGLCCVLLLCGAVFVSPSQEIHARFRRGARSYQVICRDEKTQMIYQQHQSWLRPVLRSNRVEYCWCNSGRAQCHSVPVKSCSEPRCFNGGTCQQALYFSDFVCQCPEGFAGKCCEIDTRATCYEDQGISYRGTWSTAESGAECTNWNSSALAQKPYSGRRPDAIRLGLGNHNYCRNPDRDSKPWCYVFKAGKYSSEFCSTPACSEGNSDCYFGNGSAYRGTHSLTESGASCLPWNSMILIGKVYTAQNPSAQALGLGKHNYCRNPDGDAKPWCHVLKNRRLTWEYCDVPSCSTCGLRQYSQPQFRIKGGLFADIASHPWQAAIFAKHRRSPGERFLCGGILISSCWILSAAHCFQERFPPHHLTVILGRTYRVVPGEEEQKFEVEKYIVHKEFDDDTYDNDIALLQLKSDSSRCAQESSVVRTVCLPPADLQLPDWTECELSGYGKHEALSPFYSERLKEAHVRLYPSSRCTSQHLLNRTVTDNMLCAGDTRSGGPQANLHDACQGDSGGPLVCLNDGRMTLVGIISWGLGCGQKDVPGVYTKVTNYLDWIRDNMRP
Chain of Vitamin K-dependent protein C (P04070 43-197 limits assumed): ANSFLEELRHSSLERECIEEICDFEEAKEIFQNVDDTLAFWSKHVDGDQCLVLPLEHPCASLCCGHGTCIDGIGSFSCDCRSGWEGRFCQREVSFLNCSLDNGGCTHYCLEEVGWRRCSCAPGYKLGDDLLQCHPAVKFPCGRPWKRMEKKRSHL
Chain of Vitamin K-dependent protein C (P04070 212-461 limits assumed): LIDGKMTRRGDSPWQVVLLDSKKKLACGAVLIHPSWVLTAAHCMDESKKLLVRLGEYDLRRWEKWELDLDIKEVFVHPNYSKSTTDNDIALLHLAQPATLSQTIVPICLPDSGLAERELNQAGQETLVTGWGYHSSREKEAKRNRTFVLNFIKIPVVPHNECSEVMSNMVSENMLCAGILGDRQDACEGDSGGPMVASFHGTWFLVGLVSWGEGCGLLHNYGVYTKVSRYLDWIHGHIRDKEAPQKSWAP
Chain of Coagulation factor X (P00743 41-180 limits assumed): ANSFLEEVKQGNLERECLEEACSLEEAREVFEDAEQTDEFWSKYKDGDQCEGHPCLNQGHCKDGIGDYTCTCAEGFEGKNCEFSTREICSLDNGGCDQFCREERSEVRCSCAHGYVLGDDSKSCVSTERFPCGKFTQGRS
Chain of Coagulation factor X (P00743 234-492 limits assumed): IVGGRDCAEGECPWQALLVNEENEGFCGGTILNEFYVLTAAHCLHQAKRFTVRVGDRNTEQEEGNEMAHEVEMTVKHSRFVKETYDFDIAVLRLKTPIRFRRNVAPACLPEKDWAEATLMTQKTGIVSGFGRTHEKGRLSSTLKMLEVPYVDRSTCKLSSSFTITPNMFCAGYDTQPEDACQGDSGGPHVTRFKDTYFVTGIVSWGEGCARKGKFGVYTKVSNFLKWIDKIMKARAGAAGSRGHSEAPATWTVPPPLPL

| SMILES | Ki (Prothrombin) [µM] | Ki (Serine protease 1) [µM] | Ki (Plasminogen [1]) [µM] | Ki (Coagulation factor X) [µM] | also measured |
| --- | --- | --- | --- | --- | --- |
| N=C(N)c1cccc(C[C@H](NS(=O)(=O)c2ccc3ccccc3c2)C(=O)N2CCN(CCO)CC2)c1 | 5.6 | 39 | – | – | – |
| CS(=O)(=O)N1CCN(C(=O)C(Cc2cccc(C(=N)N)c2)NS(=O)(=O)c2ccc3ccccc3c2)CC1 (stereo not given) | – | 0.19 | – | – | – |
| N=C(N)c1cccc(CC(NS(=O)(=O)c2ccc3ccccc3c2)C(=O)N2CCCCC2)c1 (stereo not given) | – | – | 7 | 38 | – |
| N=C(N)c1cccc(CC(NS(=O)(=O)c2ccc3ccccc3c2)C(=O)N2CCN(C(=O)c3ccccc3)CC2)c1 (stereo not given) | 7.6 | 0.14 | 7.2 | 16 | – |
| CC(=O)N1CCN(C(=O)[C@H](Cc2cccc(C(=N)N)c2)NS(=O)(=O)c2ccc3ccccc3c2)CC1 | – | 17 | – | – | – |
| N=C(N)c1cccc(CC(NS(=O)(=O)c2ccc3ccccc3c2)C(=O)N2CCN(CCO)CC2)c1 (stereo not given) | – | 1.1 | – | – | – |
| CS(=O)(=O)N1CCN(C(=O)C(Cc2cccc(C(=N)N)c2)NS(=O)(=O)c2ccccc2)CC1 (stereo not given) | 0.22 | 1 | 29 | 29 | – |
| N=C(N)c1cccc(CC(NS(=O)(=O)c2ccc3ccccc3c2)C(=O)N2CCN(c3ccccc3)CC2)c1 (stereo not given) | – | – | 2.6 | 27 | – |
| COc1cc(C)c(S(=O)(=O)NC(Cc2cccc(C(=N)N)c2)C(=O)N2CCN(S(C)(=O)=O)CC2)c(C)c1C (stereo not given) | – | 1.8 | – | – | – |
| N=C(N)c1cccc(CC(NS(=O)(=O)c2ccc3ccccc3c2)C(=O)N2CCN(C(=O)c3ccc4ccccc4c3)CC2)c1 (stereo not given) | 0.46 | 0.19 | 3 | 7.3 | – |
| N=C(N)c1cccc(C[C@H](NS(=O)(=O)c2ccc3ccccc3c2)C(=O)N2CCN(C=O)CC2)c1 | 1.6 | 11.1 | – | – | – |
| Cc1ccc(S(=O)(=O)N2CCN(C(=O)C(Cc3cccc(C(=N)N)c3)NS(=O)(=O)c3ccc4ccccc4c3)CC2)cc1 (stereo not given) | – | 0.22 | – | – | – |
| CCCS(=O)(=O)N1CCN(C(=O)C(Cc2cccc(C(=N)N)c2)NS(=O)(=O)c2ccc3ccccc3c2)CC1 (stereo not given) | 0.28 | 0.21 | 7.8 | 22 | – |
| CC(=O)N1CCN(C(=O)C(Cc2cccc(C(=N)N)c2)NS(=O)(=O)c2ccc3ccccc3c2)CC1 (stereo not given) | – | 0.14 | – | – | – |
| N=C(N)c1cccc(C[C@@H](NS(=O)(=O)c2ccc3ccccc3c2)C(=O)N2CCN(CCO)CC2)c1 | 0.037 | 0.6 | – | 22 | Ki [2]: 140 µM; Ki (Coagulation factor XII): 400 µM; Ki [3]: 180 µM; Ki [4]: 39 µM; Ki (Plasma kallikrein): 27 µM; IC50 [5]: 0.14 µM; Ki (Plasminogen [6]): 21 µM; IC50 [7]: 1.1 µM; IC50 [8]: 0.56 µM |
| CS(=O)(=O)N1CCN(C(=O)[C@@H](Cc2cccc(C(=N)N)c2)NS(=O)(=O)c2ccc3ccccc3c2)CC1 | – | 0.067 | – | 19 | Ki [2]: 28 µM; Ki (Coagulation factor XII): 52 µM; Ki [3]: 190 µM; Ki [4]: 15.2 µM; Ki (Plasma kallikrein): 58 µM; IC50 [5]: 0.037 µM; Ki (Plasminogen [6]): 9 µM; IC50 [7]: 0.39 µM; IC50 [8]: 0.26 µM |
| CN1CCN(C(=O)C(Cc2cccc(C(=N)N)c2)NS(=O)(=O)c2ccc3ccccc3c2)CC1 (stereo not given) | 0.036 | – | 55 | 30 | – |
| CCN(CC)C(=O)N1CCN(C(=O)C(Cc2cccc(C(=N)N)c2)NS(=O)(=O)c2ccc3ccccc3c2)CC1 (stereo not given) | 0.51 | 0.22 | 14 | 12 | – |
| CN(C)C(=O)N1CCN(C(=O)[C@@H](Cc2cccc(C(=N)N)c2)NS(=O)(=O)c2ccc3ccccc3c2)CC1 | 0.004 | 0.097 | – | 16 | Ki [2]: 28 µM; Ki (Coagulation factor XII): 61 µM; Ki [3]: > 1000 µM; Ki [4]: 13.5 µM; Ki (Plasma kallikrein): 7.3 µM; IC50 [5]: 0.042 µM; Ki (Plasminogen [6]): 4.9 µM; IC50 [7]: 0.72 µM; IC50 [8]: 0.39 µM |
| Cc1c(C)c(S(=O)(=O)N[C@H](Cc2cccc(C(=N)N)c2)C(=O)N2CCN(S(C)(=O)=O)CC2)c(C)c2c1OC(C)(C)CC2 | 0.0053 | 0.32 | – | 41 | Ki [2]: 58 µM; Ki (Coagulation factor XII): > 1000 µM; Ki [3]: 470 µM; Ki [4]: 180 µM; Ki (Plasma kallikrein): 97 µM |
| CN(C)C(=O)N1CCN(C(=O)C(Cc2cccc(C(=N)N)c2)NS(=O)(=O)c2ccc3ccccc3c2)CC1 (stereo not given) | – | 0.17 | – | – | – |
| Cc1c(C)c(S(=O)(=O)NC(Cc2cccc(C(=N)N)c2)C(=O)N2CCN(S(C)(=O)=O)CC2)c(C)c2c1OC(C)(C)CC2 (stereo not given) | – | 0.76 | – | – | – |
| N=C(N)c1cccc(CC(NS(=O)(=O)c2ccc3ccccc3c2)C(=O)N2CCN(C(=O)C3CCCCC3)CC2)c1 (stereo not given) | – | 0.072 | – | – | – |

| SMILES | Ki (Prothrombin) [µM] | Ki (Serine protease 1) [µM] | Ki (Plasminogen [1]) [µM] | Ki (Coagulation factor X) [µM] | also measured |
| --- | --- | --- | --- | --- | --- |
| N=C(N)c1cccc(CC(NS(=O)(=O)c2ccc3ccccc3c2)C(=O)N2CCN(S(=O)(=O)c3ccccc3)CC2)c1 (stereo not given) | – | 0.33 | – | – | – |
| CC(C)c1cc(C(C)C)c(S(=O)(=O)NC(Cc2cccc(C(=N)N)c2)C(=O)N2CCN(S(C)(=O)=O)CC2)c(C(C)C)c1 (stereo not given) | – | – | 6.4 | 7.4 | – |
| CN(C)C(=O)N1CCN(C(=O)[C@H](Cc2cccc(C(=N)N)c2)NS(=O)(=O)c2ccc3ccccc3c2)CC1 | 0.35 | 8.5 | – | – | – |
| CC1(C)C2CCC1(CCS(=O)(=O)N[C@H](Cc1cccc(C(=N)N)c1)C(=O)N1CCN(S(C)(=O)=O)CC1)C(=O)C2 (stereo not given in full) | 0.012 | 0.22 | – | 1.1 | Ki [2]: 49 µM; Ki (Coagulation factor XII): 55 µM; Ki [3]: 20 µM; Ki [4]: 33 µM; Ki (Plasma kallikrein): 22 µM; Ki (Plasminogen [6]): 14 µM |
| N=C(N)c1cccc(CC(NS(=O)(=O)c2ccc3ccccc3c2)C(=O)N2CCNCC2)c1 (stereo not given) | – | – | 10.2 | 21 | – |
| COC(=O)N1CCN(C(=O)C(Cc2cccc(C(=N)N)c2)NS(=O)(=O)c2ccc3ccccc3c2)CC1 (stereo not given) | – | – | 2.8 | 77 | – |
| CN1CCN(C(=O)[C@H](Cc2cccc(C(=N)N)c2)NS(=O)(=O)c2ccc3ccccc3c2)CC1 | 7.1 | 73 | – | – | – |
| N=C(N)c1cccc(CC(NS(=O)(=O)c2ccc3ccccc3c2)C(=O)N2CCN(S(=O)(=O)c3ccc4ccccc4c3)CC2)c1 (stereo not given) | – | 0.4 | – | – | – |
| CCCCS(=O)(=O)N1CCN(C(=O)C(Cc2cccc(C(=N)N)c2)NS(=O)(=O)c2ccc3ccccc3c2)CC1 (stereo not given) | 0.35 | 0.18 | 11 | 18 | – |
| CCOC(=O)N1CCN(C(=O)C(Cc2cccc(C(=N)N)c2)NS(=O)(=O)c2ccc3ccccc3c2)CC1 (stereo not given) | 0.67 | 0.022 | 2.5 | 54 | – |
| N=C(N)c1cccc(CC(NS(=O)(=O)c2ccc3ccccc3c2)C(=O)N2CCN(C(=O)Oc3ccccc3)CC2)c1 (stereo not given) | 17 | 0.028 | 2.3 | 43 | – |
| CS(=O)(=O)N1CCN(C(=O)[C@H](Cc2cccc(C(=N)N)c2)NS(=O)(=O)c2ccc3ccccc3c2)CC1 | – | 13 | – | – | – |
| CCS(=O)(=O)N1CCN(C(=O)C(Cc2cccc(C(=N)N)c2)NS(=O)(=O)c2ccc3ccccc3c2)CC1 (stereo not given) | – | 0.19 | – | – | – |
| CCCCCC(=O)N1CCN(C(=O)C(Cc2cccc(C(=N)N)c2)NS(=O)(=O)c2ccc3ccccc3c2)CC1 (stereo not given) | – | 0.064 | – | – | – |
| CS(=O)(=O)N1CCN(C(=O)C(N)Cc2cccc(C(=N)N)c2)CC1 (stereo not given) | – | – | > 1000 | > 1000 | – |
| N=C(N)c1cccc(CC(NS(=O)(=O)c2ccc3ccccc3c2)C(=O)N2CCN(C=O)CC2)c1 (stereo not given) | – | 0.22 | – | – | – |
| CC(C)(C)c1ccc(S(=O)(=O)NC(Cc2cccc(C(=N)N)c2)C(=O)N2CCN(S(C)(=O)=O)CC2)cc1 (stereo not given) | – | – | 14 | – | – |
| CCCC(=O)N1CCN(C(=O)C(Cc2cccc(C(=N)N)c2)NS(=O)(=O)c2ccc3ccccc3c2)CC1 (stereo not given) | 1.04 | 0.049 | 8.6 | 80 | – |
| CC1CCN(C(=O)C(Cc2cccc(C(=N)N)c2)NS(=O)(=O)c2ccc3ccccc3c2)CC1 (stereo not given) | – | – | 5.2 | 41 | – |
| CC1CNc2c(cccc2S(=O)(=O)N[C@@H](CCCNC(=N)N)C(=O)N2CCC(C)C[C@@H]2C(=O)O)C1 (single isomer, unassigned) [ARGATROBAN] | – | – | – | – | IC50 [5]: 0.062 µM; IC50 [7]: 0.66 µM; IC50 [8]: 0.42 µM |
| CC1(C)C2CCC1(CCS(=O)(=O)NC(Cc1cccc(C(=N)N)c1)C(=O)N1CCN(S(C)(=O)=O)CC1)C(=O)C2 (stereo in doubt; 28) | 0.012 | 0.22 | 14 | 1.1 | – |
| CC1(C)C2CCC1(CCS(=O)(=O)NC(Cc1cccc(C(=N)N)c1)C(=O)N1CCN(S(C)(=O)=O)CC1)C(=O)C2 (stereo in doubt; 30) | 0.031 | 0.44 | 29 | 6.7 | – |
